Measured values: US7166622B2, “Substituted phenylsulfonamide inhibitors of beta amyloid production” (Wyeth, priority 2002, dated 2007)
Values joined by “and” are separate entries in the source; they are usually repeats but may differ in a detail not shown here. Equal values may be shown once. Read-outs that look alike come from different tables or passages of the source.

Assays:
[1] = system: CHO-K1 cells; test: Toxicity in RRA (loss of luciferase signal); conditions: toxicity = loss of signal (<0.75 fold increase)
Procedure: The beta amyloid inhibitory activity of the compounds of the present invention was determined using the Repressor Release Assay (RRA).
“Fold Increase” refers to the amount of luciferase activity (measured in relative light units) over diluent control. “SEM” refers to the standard error of the mean for fold increase.

[2] = system: beta amyloid production; test: Repressor Release Assay (RRA); assay type: cell-based; conditions: for APPI % of Example #98: relative to Example 98; for fold induction at 10 µg/mL / fold induction at 20 µg/mL / fold induction at 3 µg/mL: read-out: APPI Fold Increase
In short: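 CHO-K1 cells transiently co-transfected with pRSVO-luc and an APP-lacI construct, replated, then treated in duplicate for 36-48 h at 37 °C, 5% CO2. Compounds diluted in 25 mM Hepes, with Hepes/1% DMSO as diluent control. Luciferase read-out in relative light units; toxicity scored 1 non-toxic, 0 toxic.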

[3] = Conc 20 μg/ml, luciferase activity over diluent control
[4] = Conc 10 μg/ml, luciferase activity over diluent control
[5] = Conc 3 μg/ml, luciferase activity over diluent control

Row | Compound | (%)APPI Toxicity ([1]; Conc 20 μg/ml) | (%)APPI Toxicity ([1]; Conc 10 μg/ml) | fold induction at 10 µg/mL [2, 4] | fold induction at 20 µg/mL [2, 3] | also measured
1 | 3,4-dibromo-N-[(11S)-1-(hydroxymethyl)-2,2-dimethylpropyl]benzenesulfonamide [Example 29] | 1 (1=non-toxic) | – | – | – | APPI Fold Increase [2, 3]: 2.1 fold; APPI % of Example #98 ([2]; Conc 20 μg/ml): 49.5%
2 | CC[C@H](C)[C@H](NS(=O)(=O)c1ccc(F)cc1)C(O)C1CCCC1 (stereo partly drawn) [Example 127, N-{(1S,2S)-1-[cyclopentyl(hydroxy)methyl]-2-methylbutyl}-4-fluorobenzenesulfonamide] | – | 1 (1=non-toxic) | 2.97 | – | –
3 | CC[C@H](C)[C@H](NS(=O)(=O)c1ccc(Br)cc1)C(O)C1CCCC1 (stereo partly drawn) [Example 146, 4-bromo-N-1-{(1S,2S)-1-[cyclopentyl(hydroxy)methyl]-2-methylbutyl}benzenesulfonamide] | – | 1 (1=non-toxic) | – | – | (%)APPI Toxicity ([1]; Conc 3 μg/ml): 1 (1=non-toxic); APPI Fold Increase [2, 5]: 1.53 fold; APPI % of Example #98 ([2]; Conc 3 μg/ml): 60.66%; APPI Fold Increase [2, 4]: 4.26 fold and 2.33 fold; APPI % of Example #98 ([2]; Conc 10 μg/ml): 166.6% and 92.64%
4 | C=C(C)C(O)[C@@H](NS(=O)(=O)c1ccc(F)cc1)[C@@H](C)CC (stereo partly drawn) [Example 138, 4-fluoro-N-{(1S)-2-hydroxy-3-methyl-1-[(1S)-1-methylpropyl]-3-butenyl}benzenesulfonamide] | – | 1 (1=non-toxic) | 1.57 | – | –
5 | C=C(C)C(O)(C(=C)C)[C@@H](NS(=O)(=O)c1ccc(Cl)cc1)[C@@H](C)CC [Example 230, 4-chloro-N-{(1S)-2-hydroxy-2-isopropenyl-3-methyl-1-[(1S)-1-methylpropyl]-3-butenyl}benzenesulfonamide] | 1 (1=non-toxic) | 1 (1=non-toxic) | 1.75 | 1.9 | –
6 | CCCCC(O)[C@@H](NS(=O)(=O)c1ccccc1F)[C@@H](C)CC (stereo partly drawn) [Example 205, 2-fluoro-N-{(1S)-2-hydroxy-1-[(1S)-1-methylpropyl]hexyl}benzenesulfonamide] | – | 1 (1=non-toxic) | 1.72 | – | –
7 | CC[C@H](C)[C@@H](CO)NS(=O)(=O)c1ccc(F)cc1F [Example 9, 2,4-difluoro-N-[(1S,2S)-1-(hydroxymethyl)-2-methylbutyl]benzenesulfonamide] | 1 (1=non-toxic) | 1 (1=non-toxic) | 2.2 | 1.8 | –
8 | C[C@@H](NS(=O)(=O)c1ccc(Br)cc1)[C@@H](O)c1ccccc1 [Example 100, 4-bromo-N-[(1R,2S)-2-hydroxy-1-methyl-2-phenylethyl] benzenesulfonamide] | 1 (1=non-toxic) | – | – | – | APPI Fold Increase [2, 3]: 1.6 fold; APPI % of Example #98 ([2]; Conc 20 μg/ml): 41%
9 | CC[C@H](C)[C@@H](CO)NS(=O)(=O)c1cccc(Cl)c1 [Example 3, 3-chloro-N-[(1S,2S)-1-(hydroxymethyl)-2-methylbutyl]benzenesulfonamide] | 1 (1=non-toxic) | – | – | 3.6 | –
10 | C=CCC(O)(CC=C)[C@@H](NS(=O)(=O)c1ccc(F)cc1)[C@@H](C)CC [Example 241, N-{(1S)-2-allyl-2-hydroxy-1-[(1S)-1-methylpropyl]-4-pentenyl}-4-fluoro benzenesulfonamide] | – | 1 (1=non-toxic) | – | – | APPI Fold Increase [2, 4]: 1.58 fold; APPI % of Example #98 ([2]; Conc 10 μg/ml): 72.82%
11 | CC[C@](C)(CO)NS(=O)(=O)c1ccc(Cl)cc1 [Example 97, 4-chloro-N-[(1R)-1-(hydroxymethyl)-1-methylpropyl]benzenesulfonamide] | 1 (1=non-toxic) | – | – | 1.5 | –
12 | C=CCC(O)[C@@H](NS(=O)(=O)c1cccc(Cl)c1)[C@@H](C)CC (stereo partly drawn) [Example 194, 3-chloro-N-{(1S)-2-hydroxy-1-[(1S)-1-methylpropyl]-4-pentenyl}benzenesulfonamide] | – | 1 (1=non-toxic) | 3.42 | – | –
13 | CC[C@H](C)[C@H](NS(=O)(=O)c1ccc(Br)cc1)C(O)c1ccc(Cl)cc1 (stereo partly drawn) [Example 155, 4-bromo-N-{(1S,2S)-1-[(4-chlorophenyl)(hydroxy)methyl]-2-methylbutyl}benzenesulfonamide] | – | 1 (1=non-toxic) | 4.37 | – | –
14 | O=S(=O)(NC1(CO)CCc2ccccc21)c1ccc(Br)cc1 (stereo not drawn) [Example 122, 4-bromo-N-[1-(hydroxymethyl)-2,3-dihydro-1H-inden-1-yl]benzenesulfonamide] | 1 (1=non-toxic) | – | – | 1.5 | –
15 | CC[C@H](C)[C@H](NS(=O)(=O)c1ccc(Cl)cc1)C(O)c1ccccc1C (stereo partly drawn) [Example 171, 4-chloro-N-{(1S,2S)-1-[hydroxy(2-methylphenyl)methyl]-2-methylbutyl}benzenesulfonamide] | – | 1 (1=non-toxic) | 1.54 | – | –
16 | CC[C@H](C)[C@H](NS(=O)(=O)c1cccc(Cl)c1)C(O)(c1ccccc1)c1ccccc1 [Example 253, 3-chloro-N-{(1S,2S)-1-[hydroxy(diphenyl)methyl]-2-methylbutyl}benzenesulfonamide] | – | 1 (1=non-toxic) | 1.61 | – | –
17 | CCCCC[C@H](C)[C@@H](CO)NS(=O)(=O)c1ccc(Cl)cc1 [Example 60, 4-chloro-N-[(1S,2S)-1-(hydroxymethyl)-2-methylheptyl]benzenesulfonamide] | – | – | – | – | (%)APPI Toxicity ([1]; Conc 20 μg/ml, 1=non-toxic, 0=toxic): 1 (1=non-toxic); fold induction at 20 µg/mL ([2]; Conc 20 μg/ml, luciferase activity (RLU) over diluent control): 4.6
18 | CC[C@H](C)[C@H](NS(=O)(=O)c1ccc(F)cc1)C(C)O (stereo partly drawn) [Example 126, 4-fluoro-N-[(1S,2S)-1-(1-hydroxyethyl)-2-methylbutyl]benzenesulfonamide] | – | 1 (1=non-toxic) | 1.52 | – | (%)APPI Toxicity ([1]; Conc 3 μg/ml): 1 (1=non-toxic); fold induction at 3 µg/mL [2, 5]: 1.54
19 | CC[C@@H](C)[C@@H](CO)NS(=O)(=O)c1ccc(Cl)cc1 [Example 39, 4-chloro-N-[(1S,2R)-1-(hydroxymethyl)-2-methylbutyl]benzenesulfonamide] | 1 (1=non-toxic) | 1 (1=non-toxic) | 2.47 | 5.5 | (%)APPI Toxicity ([1]; Conc 3 μg/ml): 1 (1=non-toxic); fold induction at 3 µg/mL [2, 5]: 1.56
20 | CC[C@H](C)[C@H](NS(=O)(=O)c1ccc(F)cc1)C(O)c1ccc(N(C)C)cc1 (stereo partly drawn) [Example 143, N-{(1S,2S)-1-[[4-(dimethylamino)phenyl](hydroxy)methyl]-2-methylbutyl}-4-fluorobenzenesulfonamide] | – | 1 (1=non-toxic) | 5.72 | – | –
